Test: Measurement of porosity (KOPTRI)
Format: physicochemical
Protocol: The porosity measurement was performed by the Korea Polymer Testing & Research Institute (KOPTRI), an accredited international testing agency, by requesting the samples prepared by the present applicant.

Q: For `O=P1(N(CCCl)CCCl)NCCCO1` (stereo not drawn) [Comparison 2, 2-[bis(2-chloroethyl)amino]tetrahydro-2H-1,3,2-oxazaphosphorin-2-oxide], which Apparent density is on record?
A: The Apparent density was 1.31 g/mL.

Q: What about the Porosity of the same compound?
A: Its Porosity is 5.24%.

Q: What about the Average diameter (pore size) of the same compound?
A: The Average diameter was 0.02 μm.
